Like-named read-outs stand apart in the source and are kept apart here.
Columns and labels:
[1] = biological target: T1, CCK-A receptor (Pancreas) (Rattus norvegicus, UniProt P30551); experiment: Binding to CCK receptor, pancreas membranes, inhibition of 125I-CCK-8 specific binding
T1 construct: Whole pancreas was removed from male Wister rats; from tissue; host or cells: rat pancreas membranes (male Wistar rats)
T1 sequence (P30551 1-444): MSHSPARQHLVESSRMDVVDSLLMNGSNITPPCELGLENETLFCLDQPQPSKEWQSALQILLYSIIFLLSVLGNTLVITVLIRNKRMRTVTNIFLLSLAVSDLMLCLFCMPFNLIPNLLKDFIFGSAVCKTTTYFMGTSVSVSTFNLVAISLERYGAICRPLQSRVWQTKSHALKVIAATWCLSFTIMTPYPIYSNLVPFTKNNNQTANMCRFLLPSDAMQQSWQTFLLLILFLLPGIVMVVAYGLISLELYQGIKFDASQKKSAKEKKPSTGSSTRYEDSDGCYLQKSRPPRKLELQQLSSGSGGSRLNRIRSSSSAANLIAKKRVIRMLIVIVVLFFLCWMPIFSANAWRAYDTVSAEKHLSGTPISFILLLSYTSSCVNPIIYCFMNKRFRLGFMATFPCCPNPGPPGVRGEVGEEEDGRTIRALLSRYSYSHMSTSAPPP
Experimental: (§1) Whole pancreas was removed from male Wister rats. Fat tissue was removed and the pancreas was homogenized (Blinkman Polytron PT20) in 10 mM MES buffer (0.02% Bacitracin, 0.02% soy bean-derived trypsin inhibitor, 0.0001% phenylmethanesulfonyl fluoride, pH 6.5). The homogenate was passed through a nylon cloth (120 mesh) and the filtrate was centrifuged at 40,000×g for 15 minutes. The obtained sediment was homogenized in Tris buffer and centrifuged in the same manner as above. The sediment was suspended in a buffer for binding assay (50 mM MES containing 130 mM sodium chloride, 4.7 mM potassium chloride, 5 mM magnesium chloride, 0.02% Bacitracin, 0.0001% phenylmethanesulfonyl fluoride, pH 6.5) and used as a peripheral receptor source. In the case of central tissue, rat cerebral cortex was used for the preparation by suspending same in a buffer (pH 6.5) containing 5 mM magnesium chloride, 1 mM EGTA [ethylene glycol bis(2-aminoethylether)tetraacetic acid], 360 mM sodium chloride, 15 mM potassium chloride, 20 mM HEPES (N-2-hydroxyethylpiperazine-N'-2-ethanesulfonic acid) and 0.25 mg/ml Bacitracin. For binding assay, 50 μl buffer (for total binding use) and unlabelled CCK-8 sulfate (for non-specific binding) having a final concentration of 1 μM or a test compound (^125 I-CCK-8, 63-67 TBq/mmol, 40,000-50,000 cpm, 50 μl) were added to a membrane suspension (450 μl, containing 100 μg as protein). The reaction mixture was incubated at 20° C. for 30 minutes and filtered through a glass fiber filter (Whatman G/FB) by suction. Immediately thereafter, the filter was washed three times with ice-cold Tris buffer (2.5 ml) and the radioactivity on the filter was determined.
(§2) The effects of the test compound on the CCK receptor binding were evaluated by the concentration (IC50, nM) necessary for inhibiting the specific binding by 50%, which was obtained by calculating the inhibition ratio by the following formula: [formula]
(§3) The results of the effects of the test compounds on the CCK receptor binding are shown in the following

CCK-B receptor (Brain) = biological target: T2, CCK-B receptor (Brain) (Rattus norvegicus, UniProt P30553); experiment: Binding to CCK receptor, cerebral cortex membranes, inhibition of 125I-CCK-8 specific binding; details: pH 6.5, 20° C., 30 minutes
T2 construct: from tissue; host or cells: rat cerebral cortex membranes
T2 sequence (P30553 1-452): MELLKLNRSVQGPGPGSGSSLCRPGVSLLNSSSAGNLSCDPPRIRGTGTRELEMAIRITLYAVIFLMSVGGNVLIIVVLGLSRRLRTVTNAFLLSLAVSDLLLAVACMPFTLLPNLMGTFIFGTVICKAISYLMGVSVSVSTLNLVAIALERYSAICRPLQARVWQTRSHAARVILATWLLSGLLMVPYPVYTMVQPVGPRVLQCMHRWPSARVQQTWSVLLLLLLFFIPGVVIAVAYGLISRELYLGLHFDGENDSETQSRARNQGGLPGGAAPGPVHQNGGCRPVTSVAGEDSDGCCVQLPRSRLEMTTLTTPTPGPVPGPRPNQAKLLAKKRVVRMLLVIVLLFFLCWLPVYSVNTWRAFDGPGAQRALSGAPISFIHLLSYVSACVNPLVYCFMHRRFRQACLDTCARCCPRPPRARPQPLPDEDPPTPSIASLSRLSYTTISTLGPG
Experimental: as §1, §2, §3

[2] = test system: CCK-8-induced secretion of pancreatic juice (trypsin secretion); experiment: Effects on CCK-induced secretion of pancreatic juice in guinea pig under anesthesia; format: in vivo; details: 300 μg/kg intravenous, 5 minutes before second CCK-8 (0.1 μg/kg i.v.); male guinea pigs under urethane anesthesia
Experimental: Effects on CCK-induced secretion of pancreatic juice in guinea pig under anesthesia
Male guinea pigs weighing about 650 g were anesthetized by subcutaneous administration of urethane (1.6 g/kg), and a cannula for injection of perfusing solution was inserted into the pyloric part of stomach and a discharge cannula was inserted at a position 2 cm distal from Treitz ligament. Duodenum was perfused with physiological saline at a rate of 8 ml/15 min, and trypsin secretion in the perfusate was determined. For the determination, Na-benzoyl-arginine p-nitroanilide (BAPNA) was used as a synthetic substrate and spectrophotometer was used for the determination. Secretion of pancreatic juice was induced by an intravenous administration of CCK-8 (0.1 μg/kg), and 60 minutes later, CCK-8 was administered again. The inhibition ratio of the test compound which was intravenously administered at 5 minutes before the second administration of CCK-8 was calculated by the following formula: [formula]
The effects of the test compounds on inhibition of secretion of pancreatic juice induced by CCK receptor in guinea pig under anesthesia are shown in the following

[3] = rat pancreas membranes, 125I-CCK-8, pH 6.5, 20° C., 30 minutes, read-out: Pancreas (CCK-A) IC50

With `CCc1cc(C(=O)c2ccccc2Cl)c(-n2c(C)nnc2CNC(=O)c2cc3ccccc3n2CC(=O)O)s1` [Example 19, 2-(4-(3-(2-chlorobenzoyl)-5-ethylthiophen-2-yl)-5-methyl[1,2,4]triazol-3-ylmethylcarbamoyl)indole-1-acetic acid] the IC50 [1, 3] was 10.6 nM, the IC50 (CCK-B receptor (Brain)) was greater than 1000 nM and the “Inhibition of CCK-8-induced secretion of pancreatic juice” value (shortened to “Inhibition”) [2] was 81.9 ± 5.9%.

Compound `CCc1cc(C(=O)c2ccccc2Cl)c(-n2c(C)nnc2CNC(=O)c2cc3ccccc3[nH]2)s1` [Example 14, N-(4-(3-(2-chlorobenzoyl)-5-ethylthiophen-2-yl)-5-methyl[1,2,4]triazol-3-ylmethyl)indole-2-carboxamide] has an IC50 [1, 3] of 3.7 nM and an IC50 (CCK-B receptor (Brain)) greater than 1000 nM.

For `CCc1cc2c(s1)-n1c(nnc1[C@@H](CCC(=O)O)NC(=O)c1cc3ccccc3[nH]1)CN=C2c1ccccc1Cl` [Example 280, (R)-(-)-4-(4-(2-chlorophenyl)-2-ethyl-6H-thieno[3,2-f] [1,2,4]triazolo[4,3-a] [1,4]diazepin-9-yl)-4-(1H-indole-2-carboxamide)butanoic acid], the IC50 [1] was 2.7 nM, the IC50 (CCK-B receptor (Brain)) was greater than 1000 nM and the “Inhibition” value [2] was 78.1 ± 7.6%.

`CCc1cc(C(=O)c2ccccc2Cl)c(-n2c(C)nnc2CNC(=O)c2ccc(Cl)cc2N)s1` [Example 338, 2-amino-4-chloro-N-(4-(3-(2-chlorobenzoyl)-5-ethylthiophen-2-yl)-5-methyl[1,2,4]triazol-3-ylmethyl)benzamide] showed an IC50 [1, 3] of 7.6 nM and an IC50 (CCK-B receptor (Brain)) greater than 1000 nM.

With `CCc1cc(C(=O)c2ccccc2Cl)c(-n2c(C)nnc2CNC(=O)c2ccc(Cl)c(Cl)c2)s1` [Example 11, N-(4-(3-(2-chlorobenzoyl)-5-ethylthiophen-2-yl)-5-methyl[1,2,4]triazol-3-ylmethyl)-3,4-dichlorobenzamide] the IC50 [1, 3] was 7.5 nM and the IC50 (CCK-B receptor (Brain)) was greater than 1000 nM.

For `CCc1cc2c(s1)-n1c(nnc1[C@@H](CCC(=O)O)NC(=O)c1ccc(Cl)c(Cl)c1)CN=C2c1ccccc1Cl` [Example 277, (R)-(-)-4-(3,4-dichlorobenzoylamino)-4-(4-(2-chlorophenyl)-2-ethyl-6H-thieno[3,2-f] [1,2,4]triazolo[4,3-a] [1,4]diazepin-9-yl)butanoic acid], the IC50 [1] was 9.6 nM, the IC50 (CCK-B receptor (Brain)) was greater than 1000 nM and the “Inhibition” value [2] was 85.1 ± 12.1%.

In the case of `CCc1cc(C(=O)c2ccccc2Cl)c(-n2c(C)nnc2CNC(=O)Nc2cccc(C)c2)s1` [Example 26, N-(4-(3-(2-chlorobenzoyl)-5-ethylthiophen-2-yl)-5-methyl[1,2,4]triazol-3-ylmethyl)-N'-(3-methylphenyl)urea], the IC50 [1, 3] is reported as 5.6 nM and the IC50 (CCK-B receptor (Brain)) is reported as greater than 1000 nM.

`CCc1cc(C(=O)c2ccccc2Cl)c(-n2c(C)nnc2CNC(=O)Nc2cccc(OC)c2)s1` [Example 27, N-(4-(3-(2-chlorobenzoyl)-5-ethylthiophen-2-yl)-5-methyl[1,2,4]triazol-3-ylmethyl)-N'-(3-methoxyphenyl)urea] was tested, and the IC50 [1, 3] was 4.8 nM and the IC50 (CCK-B receptor (Brain)) was greater than 1000 nM.

For `Cc1nnc(CNC(=O)c2cc3ccccc3[nH]2)n1-c1sc(C(=O)O)cc1C(=O)c1ccccc1Cl` [Example 252, (3-(2-chlorobenzoyl)-2-(3-(2-indolecarbonylaminomethyl)-5-methyl[1,2,4]triazol-4-yl)thiophen-5-yl)carboxylic acid], the IC50 [1, 3] was 6.6 nM, the IC50 (CCK-B receptor (Brain)) was greater than 1000 nM and the “Inhibition” value [2] was 82.6 ± 2.6%.

`CCc1cc(C(=O)c2ccccc2Cl)c(-n2c(Br)nnc2CNC(=O)c2cc3ccccc3[nH]2)s1` [Example 72, N-(3-bromo-4-(3-(2-chlorobenzoyl)-5-ethylthiophen-2-yl) [1,2,4]triazol-5-ylmethyl)indole-2-carboxamide] was tested, and the IC50 [1, 3] was 3.2 nM and the IC50 (CCK-B receptor (Brain)) was greater than 1000 nM.

`CCc1cc2c(s1)-n1c(nnc1CNC(=O)c1ccc(Cl)c(Cl)c1)CN=C2c1ccccc1Cl` [Example 59, N-(4-(2-chlorophenyl)-2-ethyl-6H-thieno[3,2-f] [1,2,4]triazolo[4,3-a] [1,4]diazepin-9-ylmethyl)-3,4-dichlorobenzamide] was tested, and the IC50 [1] was 13 nM and the IC50 (CCK-B receptor (Brain)) was greater than 1000 nM.
